Results published in publication PMC7904550, “Application of grouping and read-across for the evaluation of parabens of different chain lengths with a particular focus on endocrine properties” (Archives of Toxicology, 2021).

Experiments:
Wistar rats [1] = experiment: 90-day repeated dose oral toxicity study (OECD TG 408); type: in vivo, rat; conditions: for NOAEL, 90-day repeated-dose toxicity: OECD 408 v 2018, oral gavage
Text: Healthy and specific pathogen-free male and female (non-pregnant and nulliparous) Wistar Crl: WI(Han) rats were obtained from Charles River Laboratories (Germany). […] Upon arrival at BSL BIOSERVICE, the animals underwent an acclimatisation period of at least 5 days, and they were approximately 15–16 weeks old at the onset of the treatment period.

Wistar rats [2] = experiment: Higher-tier studies taken together (OECD TG 408, 414, 421/422, 443): NOAEL; conditions: over all higher-tier studies
Procedure: All in vivo studies were conducted as oral gavage studies, selecting the oral route as most appropriate route of administration to reflect the worst-case exposure scenario. […] The OECD TG 443 included mating of first generation (F1) offspring to produce a second generation (F2), and the DIT and DNT cohorts.

in vivo = conditions: for concentration at 1 h / Tmax / AUC(0-t) / Cmax: Wistar, rat, serum; for concentration at 1 h: oral; for Tmax / AUC(0-t) / Cmax: po
Procedure: These studies were conducted similarly to OECD TG 417 applying 500 and 1000 mg/kg body weight (bw) test item via oral gavage to 10 males and 10 females per dose group. Focus of the toxicokinetic evaluation was on the measurement of the serum concentrations of the parent compounds and their (common) major metabolite p-hydroxybenzoic acid by […] in order to assess the systemic uptake and elimination of the parent compounds and this major metabolite [see also ECHA ([2017a])]. The limit of quantification was determined as 10 ng/mL for all parabens, and as 130 ng/mL for p-hydroxybenzoic acid. […] On account of these major aims, investigations of the faeces and urine were not included in the toxicokinetics screening studies.

[3] = parent compound, 500 mg/kg, female
[4] = parent compound, 500 mg/kg, male
[5] = parent compound, 1000 mg/kg, female
[6] = parent compound, 1000 mg/kg, male

COC(=O)c1ccc(O)cc1 [Methyl paraben, Methyl 4-hydroxybenzoate]
NOAEL, 90-day repeated-dose toxicity (Wistar rats [1]): NOAEL: 1000 (OECD 408; v 2018) mg/kg body weight/day | NOAEL, 90-day repeated-dose toxicity (Wistar rats [1]; listed as methyl paraben): 1000 mg/kg body weight/day | Accessory sex organs HP (Wistar rats [1]; P0): NAE / NAE | Adrenals HP (Wistar rats [1]; P0): NAE / NAE | Adrenals weight (Wistar rats [1]; P0): NAE / NAE | Brain weight (Wistar rats [1]; P0): NAE / NAE | Cervix HP (Wistar rats [1]; P0): NAE / NAE | Coagulating gland HP (Wistar rats [1]; P0): NAE / NAE | Coagulating gland weight (Wistar rats [1]; P0): NAE / NAE | Epididymis HP (Wistar rats [1]; P0): NAE / NAE | Epididymis weight (Wistar rats [1]; P0): NAE / NAE | Liver weight (Wistar rats [1]; P0): NAE / NAE | Mammary gland HP; females (Wistar rats [1]; P0): NAE / NAE | Mammary gland HP; males (Wistar rats [1]; P0): NAE / NAE | Oestrus cyclicity (Wistar rats [1]; P0): NAE / NAE | Ovary HP (Wistar rats [1]; P0): NAE / NAE | Ovary weight (Wistar rats [1]; P0): NAE / NAE | Oviduct HP (Wistar rats [1]; P0): NAE / NAE | Pituitary HP (Wistar rats [1]; P0): NAE / NAE | Pituitary weight (Wistar rats [1]; P0): NAE / NAE | Prostate HP (Wistar rats [1]; P0): NAE / NAE | Prostate weight (Wistar rats [1]; P0): NAE / NAE | Seminal vesicles HP (Wistar rats [1]; P0): NAE / NAE | Seminal vesicles weight (Wistar rats [1]; P0): NAE / NAE | Testis HP (Wistar rats [1]; P0): NAE / NAE | Testis weight (Wistar rats [1]; P0): NAE / NAE | Thyroid HP (Wistar rats [1]; P0): NAE / NAE | Thyroid stimulating hormone level (Wistar rats [1]; P0): NAE / NAE | Thyroid weight (Wistar rats [1]; P0): NAE / NAE | Triiodothyronine / thyroxine level (Wistar rats [1]; P0): NAE / NAE | Uterus HP (with cervix) (Wistar rats [1]; P0): NAE / NAE | Uterus weight (with cervix) (Wistar rats [1]; P0): NAE / NAE | Vagina HP (Wistar rats [1]; P0): NAE / NAE | Vaginal smears (Wistar rats [1]; P0): NAE / NAE | Signs of systemic toxicity (Wistar rats [1]; sub-chronic (90-day) oral application): did not induce any signs of systemic toxicity | NOAEL: Accessory sex organs HP (Wistar rats [2]): 1000 / 1000 mg/kg bw/day | NOAEL: Adrenals HP (Wistar rats [2]): 1000 / 1000 mg/kg bw/day | NOAEL: Adrenals weight (Wistar rats [2]): 1000 / 1000 mg/kg bw/day | NOAEL: Age at balano-preputial separation (Wistar rats [2]): 1000 / 1000 mg/kg bw/day | NOAEL: Age at vaginal opening (Wistar rats [2]): 1000 / 1000 mg/kg bw/day | NOAEL: Anogenital distance (Wistar rats [2]): 1000 / 1000 mg/kg bw/day | NOAEL: Auditory startle (Wistar rats [2]): 1000 / 1000 mg/kg bw/day | NOAEL: Brain HP (Wistar rats [2]): 1000 / 1000 mg/kg bw/day | NOAEL: Brain morphometric evaluation (Wistar rats [2]): 1000 / 1000 mg/kg bw/day | NOAEL: Brain weight (Wistar rats [2]): 1000 / 1000 mg/kg bw/day | NOAEL: Cervix HP (Wistar rats [2]): 1000 / 1000 mg/kg bw/day | NOAEL: Coagulating gland HP (Wistar rats [2]): 1000 / 1000 mg/kg bw/day | NOAEL: Coagulating gland weight (Wistar rats [2]): 1000 / 1000 mg/kg bw/day | NOAEL: Colloid area (thyroid HP) (Wistar rats [2]): 1000 / 1000 mg/kg bw/day | NOAEL: Dystocia (Wistar rats [2]): 1000 / 1000 mg/kg bw/day | NOAEL: Epididymis HP (Wistar rats [2]): 1000 / 1000 mg/kg bw/day | NOAEL: Epididymis weight (Wistar rats [2]): 1000 / 1000 mg/kg bw/day | NOAEL: Fertility (Wistar rats [2]): 1000 / 1000 mg/kg bw/day | NOAEL: Foetal development (Wistar rats [2]): 1000 / 1000 mg/kg bw/day | NOAEL: Functional observation battery (Wistar rats [2]): 1000 / 1000 mg/kg bw/day | NOAEL: Genital abnormalities (Wistar rats [2]): 1000 / 1000 mg/kg bw/day | NOAEL: Gestation length (Wistar rats [2]): 1000 / 1000 mg/kg bw/day | NOAEL: Litter / pup weight (Wistar rats [2]): 1000 / 1000 mg/kg bw/day | NOAEL: Litter size (Wistar rats [2]): 1000 / 1000 mg/kg bw/day | NOAEL: Litter viability (Wistar rats [2]): 1000 / 1000 mg/kg bw/day | NOAEL: Liver weight (Wistar rats [2]): 1000 / 1000 mg/kg bw/day | NOAEL: Mammary gland HP; females (Wistar rats [2]): 1000 / 1000 mg/kg bw/day | NOAEL: Mammary gland HP; males (Wistar rats [2]): 1000 / 1000 mg/kg bw/day | NOAEL: Motor activity (Wistar rats [2]): 1000 / 1000 mg/kg bw/day | NOAEL: Nipple development (Wistar rats [2]): 1000 / 1000 mg/kg bw/day | NOAEL: No. of implantations, corpora lutea (Wistar rats [2]): 1000 / 1000 mg/kg bw/day | NOAEL: No. of live births (Wistar rats [2]): 1000 / 1000 mg/kg bw/day | NOAEL: No. of ovarian follicles (Wistar rats [2]): 1000 / 1000 mg/kg bw/day | NOAEL: Oestrus cyclicity (Wistar rats [2]): 1000 / 1000 mg/kg bw/day | NOAEL: Offspring: learning & memory (Wistar rats [2]): 1000 / 1000 mg/kg bw/day | NOAEL: Ovary HP (Wistar rats [2]): 1000 / 1000 mg/kg bw/day | NOAEL: Ovary weight (Wistar rats [2]): 1000 / 1000 mg/kg bw/day | NOAEL: Oviduct HP (Wistar rats [2]): 1000 / 1000 mg/kg bw/day | NOAEL: Pituitary HP (Wistar rats [2]): 1000 / 1000 mg/kg bw/day | NOAEL: Pituitary weight (Wistar rats [2]): 1000 / 1000 mg/kg bw/day | NOAEL: Postimplantation loss (Wistar rats [2]): 1000 / 1000 mg/kg bw/day | NOAEL: Pre-implantation loss (Wistar rats [2]): 1000 / 1000 mg/kg bw/day | NOAEL: Presence of anomalies (Wistar rats [2]): 1000 / 1000 mg/kg bw/day | NOAEL: Prostate HP (Wistar rats [2]): 1000 / 1000 mg/kg bw/day | NOAEL: Prostate weight (Wistar rats [2]): 1000 / 1000 mg/kg bw/day | NOAEL: Pup development (Wistar rats [2]): 1000 / 1000 mg/kg bw/day | NOAEL: Reproduction (Wistar rats [2]): 1000 / 1000 mg/kg bw/day | NOAEL: Seminal vesicles HP (Wistar rats [2]): 1000 / 1000 mg/kg bw/day | NOAEL: Seminal vesicles weight (Wistar rats [2]): 1000 / 1000 mg/kg bw/day | NOAEL: Testis HP (Wistar rats [2]): 1000 / 1000 mg/kg bw/day | NOAEL: Testis weight (Wistar rats [2]): 1000 / 1000 mg/kg bw/day | NOAEL: Thyroid HP (Wistar rats [2]): 1000 / 1000 mg/kg bw/day | NOAEL: Thyroid stimulating hormone level (Wistar rats [2]): 1000 / 1000 mg/kg bw/day | NOAEL: Thyroid weight (Wistar rats [2]): 1000 / 1000 mg/kg bw/day | NOAEL: Time to mating (Wistar rats [2]): 1000 / 1000 mg/kg bw/day | NOAEL: Triiodothyronine / thyroxine level (Wistar rats [2]): 1000 / 1000 mg/kg bw/day | NOAEL: Uterus HP (with cervix) (Wistar rats [2]): 1000 / 1000 mg/kg bw/day | NOAEL: Uterus weight (with cervix) (Wistar rats [2]): 1000 / 1000 mg/kg bw/day | NOAEL: Vagina HP (Wistar rats [2]): 1000 / 1000 mg/kg bw/day | NOAEL: Vaginal smears (Wistar rats [2]): 1000 / 1000 mg/kg bw/day | concentration at 1 h (in vivo; female, 500 mg/kg): 338 ng/mL | concentration at 1 h (in vivo; female, 1000 mg/kg): 924 ng/mL | Tmax (in vivo; female, 500 mg/kg): 4.8 min | AUC(0-t) (in vivo; female, 500 mg/kg, AUC0-1 h, parent compound): 6450 ng·h/mL | AUC(0-t) (in vivo; female, 500 mg/kg, AUC0–t, parent compound): 9500 ng·h/mL | Cmax (in vivo; female, 500 mg/kg, parent compound): 21200 ng/mL | Tmax (in vivo; female, 1000 mg/kg): 4.8 min | AUC(0-t) (in vivo; female, 1000 mg/kg, AUC0-1 h, parent compound): 11400 ng·h/mL | AUC(0-t) (in vivo; female, 1000 mg/kg, AUC0–t, parent compound): 20500 ng·h/mL | Cmax (in vivo; female, 1000 mg/kg, parent compound): 33600 ng/mL | Cmax (in vivo; female, 1000 mg/kg, parent compound, females): ~34000 ng/mL | concentration at 1 h (in vivo; male, 500 mg/kg): 172 ng/mL | concentration at 1 h (in vivo; male, 1000 mg/kg): 552 ng/mL | Tmax (in vivo; male, 500 mg/kg): 4.8 min | AUC(0-t) (in vivo; male, 500 mg/kg, AUC0-1 h, parent compound): 1110 ng·h/mL | AUC(0-t) (in vivo; male, 500 mg/kg, AUC0–t, parent compound): 1790 ng·h/mL | Cmax (in vivo; male, 500 mg/kg, parent compound): 6200 ng/mL | AUC(0-t) (in vivo; male, 1000 mg/kg, AUC0-1 h, parent compound): 4640 ng·h/mL | AUC(0-t) (in vivo; male, 1000 mg/kg, AUC0–t, parent compound): 6150 ng·h/mL | Cmax (in vivo; male, 1000 mg/kg, parent compound): 10800 ng/mL | Cmax (in vivo; male, 1000 mg/kg, parent compound, males): ~11000 ng/mL | Rank of maximum serum concentration among the four parabens (in vivo; parent compound): highest maximum serum concentrations | AUC0-1 h/AUC0–t (in vivo; [3]): 68% | C1h/Cmax (in vivo; [3]): 1.6% | Clast (in vivo; [3]): 77.3 ng/mL | tlast (in vivo; [3]): 8.0 h | AUC0-1 h/AUC0–t (in vivo; [4]): 62% | C1h/Cmax (in vivo; [4]): 2.8% | Clast (in vivo; [4]): 48.6 ng/mL | tlast (in vivo; [4]): 8.0 h | AUC0-1 h/AUC0–t (in vivo; [5]): 55% | C1h/Cmax (in vivo; [5]): 2.7% | Clast (in vivo; [5]): 179 ng/mL | tlast (in vivo; [5]): 8.0 h | AUC0-1 h/AUC0–t (in vivo; [6]): 75% | C1h/Cmax (in vivo; [6]): 5.1% | Clast (in vivo; [6]): 122 ng/mL | tlast (in vivo; [6]): 8.0 h
